Assay results taken from PubChem BioAssay (NCI).
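Protocol summary: plate cells (96-well), add compound at 5 concentrations, incubate 48 h, interpolate endpoints linearly. Definition used: TGI = concentration required for complete inhibition of growth.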

Tests used:
Assay in all cases: growth of human tumour cells (NCI), 48 h
SNB-78 CNS = system: SNB-78 CNS
DMS 273 small cell lung = system: DMS 273 small cell lung
M19-MEL melanoma = system: M19-MEL melanoma
XF 498 CNS = system: XF 498 CNS
LXFL 529 NSCLC = system: LXFL 529 NSCLC
DLD-1 colon = system: DLD-1 colon
HOP-18 NSCLC = system: HOP-18 NSCLC
KM20L2 colon = system: KM20L2 colon
RXF-631 renal = system: RXF-631 renal

SMILES	TGI (SNB-78 CNS) [µM]	TGI (DMS 273 small cell lung) [µM]	TGI (M19-MEL melanoma) [µM]	TGI (XF 498 CNS) [µM]	TGI (LXFL 529 NSCLC) [µM]	TGI (DLD-1 colon) [µM]	TGI (HOP-18 NSCLC) [µM]	TGI (KM20L2 colon) [µM]	TGI (RXF-631 renal) [µM]
COc1ccc(NC(=O)C(C)Oc2ccc(OCC3CCCCC3)cc2)cc1 (configuration not stated)	> 100	> 100	> 100	> 100	> 100	> 100	–	–	–
COC(=O)C(Br)C1CCc2ccccc21 (configuration not stated)	–	> 100	> 100	–	> 100	> 100	> 100	> 100	> 100
COc1ccc(/C(=C/n2ccnc2)C(O)c2ccc(OC)c(OC)c2)cc1OC (configuration not stated)	–	> 100	> 100	–	–	> 100	> 100	> 100	–
CN(C)c1snc2c1c(=O)n(C)c(=O)n2C	–	> 100	> 100	> 100	> 100	> 100	> 100	> 100	> 100
CN=C(N)c1ccc(N=C(N)c2ccc(C(N)=Nc3ccc(C(N)=NC)cc3)cc2)cc1	–	> 100	> 100	–	> 100	–	–	–	> 100
CC(=O)O[C@@]12CO[C@@H]1C[C@@H](O)[C@@]1(C)C(=O)[C@H](O)C3=C(C)[C@@H](OC(=O)[C@H](O)[C@@H](NC(=O)c4ccccc4)c4ccccc4)C[C@@](O)([C@@H](OC(=O)c4ccccc4)C12)C3(C)C (some centres not stated)	–	13.5	70.9	–	–	–	–	0.0985	–
C=CCN1/C(=C2\SC(=S)N(c3ccc(C)cc3)C2=O)Sc2c1nc[nH]c2=O	> 100	> 100	> 100	> 100	> 100	> 100	–	> 100	–
C/C=C1\CN2CCc3c([nH]c4ccccc34)C2C=C1CCO (configuration not stated)	–	> 340	> 340	> 340	> 340	> 340	–	> 340	> 340
